Reference: ChEMBL document CHEMBL1201862, “PubChem BioAssay data set” (2004)
“And” between values parts separate entries of the source, which are not always exact repeats. Equal values may be shown once. The source made the active and inactive calls.

Assays:
[1] = biological target: Cytochrome P450 3A4 (Homo sapiens, UniProt P08684); details: Potency;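 further: confirmatory qHTS run detecting inhibitors and substrates of CYP3A4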
[2] = system: Streptococcus sp. 'group A'; assay: Streptococcus pyogenes SK(-)GAS viability under kanamycin – luminescence, BacTiterGlo, confirmation, counter-screen for streptokinase expression inhibitor project, dose response (AID 1900); type: functional, organism-based
[3] = biological target: T1, Probable nicotinate-nucleotide adenylyltransferase (Staphylococcus aureus (strain N315), UniProt P65502); type: functional, Staphylococcus aureus subsp. aureus N315; details: read-out: IC50_Mean;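 on IC50 Mean: confirmatory dose-response retesting of NadD inhibitor hits first found in an ultra-high-throughput screen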
[4] = biological target: T2, Streptokinase A (Streptococcus pyogenes serotype M1, UniProt P10520); assay: viability-normalized secreted streptokinase activity reduction – plasminogen activation absorbance, OD405, dose response (AID 1914); type: functional, Streptococcus pyogenes M1 GAS;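 further: secreted streptokinase activity via plasminogen activation per viability signal from cell pellet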
T2 sequence (P10520 whole entry): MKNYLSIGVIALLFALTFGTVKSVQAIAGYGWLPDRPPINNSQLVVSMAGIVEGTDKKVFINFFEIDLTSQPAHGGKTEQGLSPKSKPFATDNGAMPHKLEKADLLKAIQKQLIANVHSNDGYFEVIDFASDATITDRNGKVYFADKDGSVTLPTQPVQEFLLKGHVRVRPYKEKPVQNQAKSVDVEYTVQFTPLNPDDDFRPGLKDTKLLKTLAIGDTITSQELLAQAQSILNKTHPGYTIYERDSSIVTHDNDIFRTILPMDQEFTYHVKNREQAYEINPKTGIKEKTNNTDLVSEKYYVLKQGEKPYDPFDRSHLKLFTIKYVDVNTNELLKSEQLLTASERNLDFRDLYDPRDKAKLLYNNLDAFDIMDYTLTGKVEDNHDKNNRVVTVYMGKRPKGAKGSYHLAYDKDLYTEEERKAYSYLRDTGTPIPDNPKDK

[5] = system: Streptococcus; assay: GAS UMAA2166 growth inhibition – luminescence, BacTiterGlo, counter-screen for streptokinase expression inhibitor project, dose response (AID 1915); type: functional, organism-based;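 further: potency for reduction of bacterial viability or growth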
[6] = biological target: T1, Probable nicotinate-nucleotide adenylyltransferase; type: functional, Staphylococcus aureus subsp. aureus N315
[7] = cells; type: functional, cell-based
[8] = cells; type: functional, cell-based; remark: listed apart in the source
[9] = biological target: T3, Bcl-2-like protein 10 (Homo sapiens, UniProt Q9HD36); assay: Bcl-B/TR3 peptide binding disruption – biochemical, fluorescence polarization, FITC-TR3 peptide, selectivity assay for Bfl-1 inhibitor project, primary screen (AID 748);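 further: fluorescence polarization from a fluorescein-labelled TR3 peptide binding purified Bcl-B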
T3 sequence (Q9HD36 whole entry): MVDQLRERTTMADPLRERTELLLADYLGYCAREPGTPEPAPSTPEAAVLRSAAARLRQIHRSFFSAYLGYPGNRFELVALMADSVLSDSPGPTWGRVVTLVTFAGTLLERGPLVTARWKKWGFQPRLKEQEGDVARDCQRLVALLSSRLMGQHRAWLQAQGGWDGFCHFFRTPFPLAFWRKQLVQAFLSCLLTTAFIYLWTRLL

[10] = cells; type: functional
[11] = HepG2 cell cytotoxicity, dose response, cytotoxicity control for non-replicating M. tuberculosis project (AID 489018); type: functional; details: Mycobacterium tuberculosis
[12] = THP-1 cell cytotoxicity, dose response, cytotoxicity control for non-replicating M. tuberculosis project (AID 489025); type: functional
[13] = Vero E6 cell cytotoxicity, dose response, cytotoxicity control for non-replicating M. tuberculosis project, secondary assay (AID 492998); type: functional, VeroE6; details: Vero C1008
[14] = biological target: SUMO-activating enzyme (Homo sapiens, UniProt Q9UBT2); assay: blockers of UBC9-mediated SUMO conjugation – biochemical, AlphaScreen, SUMOylation inhibitor project, confirmation (AID 2018); type: functional
[15] = NIH3T3 cell viability loss – ATP luminescence, mouse fibroblasts, counter-screen, dose response (AID 2010); type: functional, cell-based;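 further: cells exposed to compound for about 90 hours before reading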
[16] = Trypanosoma cruzi growth suppression in host cells – NIH3T3 host cells, beta-gal luminescence, confirmation (AID 2044); type: functional, cell-based;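 further: intracellular parasites grown in NIH/3T3 mouse fibroblasts as host cells; luminescent beta-galactosidase reporter signal from transgenic T. cruzi replicating inside host cells; inhibitors lower the luminescence signal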
[17] = biological target: T4, Mannose-6-phosphate isomerase (Homo sapiens, UniProt P34949); assay: MPI enzyme activity inhibition – biochemical, fluorescence intensity, coupled assay, primary screen (AID 1209)
T4 sequence (P34949 whole entry): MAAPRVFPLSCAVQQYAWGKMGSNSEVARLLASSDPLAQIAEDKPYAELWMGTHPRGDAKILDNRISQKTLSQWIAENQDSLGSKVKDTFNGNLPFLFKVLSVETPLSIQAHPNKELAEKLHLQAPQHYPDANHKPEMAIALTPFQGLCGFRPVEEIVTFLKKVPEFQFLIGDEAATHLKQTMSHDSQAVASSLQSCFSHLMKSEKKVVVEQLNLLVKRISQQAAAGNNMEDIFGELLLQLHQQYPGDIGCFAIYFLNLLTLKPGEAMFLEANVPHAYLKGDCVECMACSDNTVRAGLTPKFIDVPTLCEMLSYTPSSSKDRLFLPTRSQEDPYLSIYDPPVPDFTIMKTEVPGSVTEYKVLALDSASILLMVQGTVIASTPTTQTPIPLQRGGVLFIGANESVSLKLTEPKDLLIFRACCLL

[18] = biological target: T5, Microphthalmia-associated transcription factor (Homo sapiens, UniProt O75030); assay: reducers of TRPM1 reporter luminescence, concentration series – cell-based, SK-MEL-5, cherry-picked, set 3, MITF inhibitor project, dose response (AID 493073); type: functional;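 further: SK-MEL-5 melanoma cells with luciferase driven by the MITF target TRPM1 promoter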
T5 sequence (O75030 whole entry): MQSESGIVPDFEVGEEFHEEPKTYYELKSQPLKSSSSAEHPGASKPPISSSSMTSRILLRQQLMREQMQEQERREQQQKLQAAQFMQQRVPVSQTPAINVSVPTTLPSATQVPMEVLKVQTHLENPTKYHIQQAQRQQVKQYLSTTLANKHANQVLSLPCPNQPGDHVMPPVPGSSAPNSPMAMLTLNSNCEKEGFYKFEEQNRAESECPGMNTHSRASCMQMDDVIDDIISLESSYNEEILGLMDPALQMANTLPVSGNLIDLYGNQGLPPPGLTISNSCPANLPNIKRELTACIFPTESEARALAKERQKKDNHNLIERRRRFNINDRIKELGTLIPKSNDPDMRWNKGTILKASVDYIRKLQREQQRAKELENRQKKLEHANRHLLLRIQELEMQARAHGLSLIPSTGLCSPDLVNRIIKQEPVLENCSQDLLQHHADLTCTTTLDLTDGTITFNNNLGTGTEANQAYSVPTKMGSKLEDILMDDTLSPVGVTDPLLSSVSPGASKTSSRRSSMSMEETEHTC

[19] = biological target: DNA dC->dU-editing enzyme APOBEC-3G (Homo sapiens, UniProt Q9HC16); assay: Dose Response confirmation of small molecule APOBEC3G DNA Deaminase Inhibitors via a fluorescence-based single-stranded DNA deaminase assay. [Related pubchem assays (depositor defined):AID493012, AID493028]; type: functional
[20] = biological target: Large T antigen (Simian virus 40, UniProt P03070); type: functional, Betapolyomavirus macacae;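 further: Confirmatory-stage PubChem screen for compounds that inhibit SV40 T antigen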
[21] = Luminescence Cell-Based Dose Retest to Confirm Inhibitors of Cancer Stem Cells. [Related pubchem assays (depositor defined):AID2717, AID2721]; type: functional; details: Homo sapiens
[22] = biological target: T6, Ubiquitin-conjugating enzyme E2 N (Homo sapiens, UniProt P61088); type: functional;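 further: Dose-response confirmation in a TR-FRET assay detecting UBC13-driven polyubiquitin chain formation, inhibition measured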
T6 sequence (P61088 whole entry): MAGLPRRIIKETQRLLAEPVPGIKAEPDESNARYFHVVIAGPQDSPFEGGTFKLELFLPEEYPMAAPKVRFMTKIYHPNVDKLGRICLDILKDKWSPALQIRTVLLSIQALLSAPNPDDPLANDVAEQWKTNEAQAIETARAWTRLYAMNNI

[23] = biological target: T7, Tyrosyl-DNA phosphodiesterase 2 (Homo sapiens, UniProt O95551); assay: potency against TDP2 phosphodiesterase activity – biochemical, epi absorbance, IC50, dose response (AID 743297)
T7 sequence (O95551 whole entry): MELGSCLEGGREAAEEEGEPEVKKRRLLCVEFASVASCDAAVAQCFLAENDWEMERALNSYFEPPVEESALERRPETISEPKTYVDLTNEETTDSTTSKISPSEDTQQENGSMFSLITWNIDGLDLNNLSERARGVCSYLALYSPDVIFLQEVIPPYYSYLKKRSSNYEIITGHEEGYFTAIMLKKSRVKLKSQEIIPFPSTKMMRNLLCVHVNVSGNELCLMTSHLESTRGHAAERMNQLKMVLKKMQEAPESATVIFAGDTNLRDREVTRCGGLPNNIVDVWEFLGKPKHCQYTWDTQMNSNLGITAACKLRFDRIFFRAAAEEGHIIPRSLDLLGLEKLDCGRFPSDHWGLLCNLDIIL

[24] = biological target: T8, Calpain-2 catalytic subunit (Sus scrofa, UniProt P43367); assay: m-calpain protease blockers, concentration series – biochemical, fluorogenic peptide substrate, dose response (AID 1420); type: functional
T8 sequence (P43367 whole entry): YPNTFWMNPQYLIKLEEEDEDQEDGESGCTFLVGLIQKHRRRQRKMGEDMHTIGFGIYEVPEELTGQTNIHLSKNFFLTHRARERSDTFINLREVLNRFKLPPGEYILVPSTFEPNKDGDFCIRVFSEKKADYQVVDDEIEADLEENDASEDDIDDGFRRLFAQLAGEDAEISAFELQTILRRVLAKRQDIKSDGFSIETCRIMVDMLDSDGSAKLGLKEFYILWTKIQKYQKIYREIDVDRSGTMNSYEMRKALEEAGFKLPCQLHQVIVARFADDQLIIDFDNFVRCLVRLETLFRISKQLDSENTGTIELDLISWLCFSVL

Sequence of Cytochrome P450 3A4 (P08684 whole entry): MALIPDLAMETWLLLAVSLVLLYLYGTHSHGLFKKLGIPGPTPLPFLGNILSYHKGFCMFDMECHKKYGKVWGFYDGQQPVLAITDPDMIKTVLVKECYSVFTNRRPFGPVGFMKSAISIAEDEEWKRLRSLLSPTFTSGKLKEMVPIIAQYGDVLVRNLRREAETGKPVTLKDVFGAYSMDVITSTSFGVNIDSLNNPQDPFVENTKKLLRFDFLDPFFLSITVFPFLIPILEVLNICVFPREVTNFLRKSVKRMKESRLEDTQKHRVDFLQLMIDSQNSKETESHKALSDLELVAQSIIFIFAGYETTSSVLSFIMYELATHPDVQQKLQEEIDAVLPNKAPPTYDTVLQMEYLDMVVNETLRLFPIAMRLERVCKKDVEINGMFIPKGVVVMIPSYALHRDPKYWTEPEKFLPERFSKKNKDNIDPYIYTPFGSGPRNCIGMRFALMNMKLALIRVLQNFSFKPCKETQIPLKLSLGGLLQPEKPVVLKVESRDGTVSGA
T1 sequence (P65502 whole entry): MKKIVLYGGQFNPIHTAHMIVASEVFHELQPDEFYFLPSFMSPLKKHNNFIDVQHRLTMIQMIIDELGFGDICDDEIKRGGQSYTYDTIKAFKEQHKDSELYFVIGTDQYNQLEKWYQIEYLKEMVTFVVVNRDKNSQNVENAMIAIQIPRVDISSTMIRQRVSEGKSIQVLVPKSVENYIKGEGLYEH
Sequence of SUMO-activating enzyme (Q9UBE0 whole entry): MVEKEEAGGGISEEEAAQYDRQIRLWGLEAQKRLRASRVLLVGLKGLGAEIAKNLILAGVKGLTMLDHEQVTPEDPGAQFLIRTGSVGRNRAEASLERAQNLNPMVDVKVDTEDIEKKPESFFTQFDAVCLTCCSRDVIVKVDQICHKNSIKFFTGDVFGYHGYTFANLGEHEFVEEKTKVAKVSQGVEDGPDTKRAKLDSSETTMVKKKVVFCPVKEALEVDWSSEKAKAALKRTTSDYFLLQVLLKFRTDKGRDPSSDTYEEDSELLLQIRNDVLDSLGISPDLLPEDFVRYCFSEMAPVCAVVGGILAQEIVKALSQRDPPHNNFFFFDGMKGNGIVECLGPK
Sequence of SUMO-activating enzyme (Q9UBT2 whole entry): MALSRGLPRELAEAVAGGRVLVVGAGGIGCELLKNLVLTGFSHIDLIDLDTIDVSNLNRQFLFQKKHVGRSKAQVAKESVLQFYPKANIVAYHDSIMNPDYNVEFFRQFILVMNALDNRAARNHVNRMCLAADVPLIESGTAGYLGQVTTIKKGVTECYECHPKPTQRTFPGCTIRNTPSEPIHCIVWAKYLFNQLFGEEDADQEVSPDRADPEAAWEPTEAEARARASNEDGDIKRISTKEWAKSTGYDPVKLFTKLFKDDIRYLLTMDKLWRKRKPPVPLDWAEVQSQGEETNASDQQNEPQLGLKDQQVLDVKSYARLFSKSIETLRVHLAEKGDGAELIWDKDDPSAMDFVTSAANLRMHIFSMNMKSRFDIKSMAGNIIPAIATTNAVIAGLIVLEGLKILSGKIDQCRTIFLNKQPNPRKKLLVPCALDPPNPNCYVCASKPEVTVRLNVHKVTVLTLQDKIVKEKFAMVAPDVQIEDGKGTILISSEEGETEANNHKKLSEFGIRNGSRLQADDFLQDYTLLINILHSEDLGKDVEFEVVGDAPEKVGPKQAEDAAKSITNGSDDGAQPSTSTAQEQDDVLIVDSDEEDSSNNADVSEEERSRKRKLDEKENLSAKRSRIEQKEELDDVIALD
Sequence of Large T antigen (P03070 whole entry): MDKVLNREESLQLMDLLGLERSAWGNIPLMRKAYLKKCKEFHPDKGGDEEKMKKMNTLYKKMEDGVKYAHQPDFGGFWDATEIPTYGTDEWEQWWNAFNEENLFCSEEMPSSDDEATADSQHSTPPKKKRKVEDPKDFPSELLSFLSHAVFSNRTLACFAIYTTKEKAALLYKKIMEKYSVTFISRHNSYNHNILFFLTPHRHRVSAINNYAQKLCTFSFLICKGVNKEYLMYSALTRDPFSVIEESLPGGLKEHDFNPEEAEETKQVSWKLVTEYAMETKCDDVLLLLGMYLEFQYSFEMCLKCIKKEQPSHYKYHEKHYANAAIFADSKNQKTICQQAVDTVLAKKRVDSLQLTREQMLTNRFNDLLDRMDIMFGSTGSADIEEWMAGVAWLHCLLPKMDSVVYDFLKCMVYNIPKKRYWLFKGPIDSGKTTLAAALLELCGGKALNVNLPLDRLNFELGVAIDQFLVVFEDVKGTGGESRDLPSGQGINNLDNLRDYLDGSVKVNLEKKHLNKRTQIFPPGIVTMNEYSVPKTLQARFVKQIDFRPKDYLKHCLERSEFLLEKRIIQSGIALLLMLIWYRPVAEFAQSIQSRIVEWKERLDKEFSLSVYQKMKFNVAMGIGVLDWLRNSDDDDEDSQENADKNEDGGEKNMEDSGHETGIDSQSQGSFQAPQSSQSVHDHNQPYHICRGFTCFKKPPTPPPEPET
Sequence of DNA dC->dU-editing enzyme APOBEC-3G (Q9HC16 whole entry): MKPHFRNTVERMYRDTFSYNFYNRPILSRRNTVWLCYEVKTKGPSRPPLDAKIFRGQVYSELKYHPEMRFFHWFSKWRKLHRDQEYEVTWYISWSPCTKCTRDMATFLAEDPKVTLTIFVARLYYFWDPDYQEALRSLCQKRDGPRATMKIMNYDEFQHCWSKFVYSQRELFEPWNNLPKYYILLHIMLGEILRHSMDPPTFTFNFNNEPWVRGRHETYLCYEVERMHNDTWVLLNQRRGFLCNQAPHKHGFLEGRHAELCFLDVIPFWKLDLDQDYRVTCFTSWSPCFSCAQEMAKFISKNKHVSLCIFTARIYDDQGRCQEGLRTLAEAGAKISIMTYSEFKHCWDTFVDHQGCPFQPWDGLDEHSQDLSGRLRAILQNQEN

CC1CCC2C(=O)OC(Cc3ccccc3)CN2C1c1ccc(Br)cc1 (stereo not given)
AC50 [1]: 3.98 µM (inconclusive) and 5.01 µM (inconclusive)

Cc1ccnc(NS(=O)(=O)c2ccc(NC(=O)c3cc(-c4ccc(Br)cc4)nc4ccccc34)cc2)n1
EC50 [2]: 7.74 µM (active)
IC50 [3]: 20.9 µM (active)
EC50 [4]: 5.84 µM (inconclusive)
EC50 [5]: 68.9 µM (active)
IC50 [6]: 7.03 µM (active)

O=C(NC(c1ccccc1)c1ccccc1)C1CCCO1 (stereo not given)
EC50 [7]: > 350 µM (not active)
EC50 [8]: > 350 µM (not active)

COc1ccc(OC)c(NC2=NCCCS2)c1
EC50 [7]: > 350 µM (not active)
EC50 [8]: > 350 µM (not active)

CCC(=O)Nc1cccc(NC(C)=O)c1
IC50 [9]: 56.6 µM (inactive)

COc1cccc(C(=O)N2N=C(c3ccccn3)CC2(O)C(F)(F)F)c1 (stereo not given)
IC50 [10]: 8.68 µM (active)
CC50 [11]: > 20 µM (active)
CC50 [12]: 9.99 µM (active)
CC50 [13]: 10.1 µM (active)

O=C(Nc1ccc2nc3ccccc3nc2c1)c1ccc(Br)cc1
IC50 [14]: 26.7 µM (active)

O=C1c2ccccc2C(=O)c2c1cccc2N1CCN(CCO)CC1
IC50 [9]: > 25 µM (inactive)

CCCCNC(=O)COC(=O)c1ccc(Cl)c(S(=O)(=O)N2CCCC2)c1
IC50 [9]: > 100 µM (inactive)

Cc1nc(C(=O)NNC(=O)c2ccc(Cl)cc2)c(C(F)(F)F)o1
IC50 [10]: 44.9 µM (active)
CC50 [11]: > 20 µM (active)
CC50 [12]: 27.8 µM (active)
CC50 [13]: > 20 µM (active)

CN(C)C(S)=Nc1nc2ccccc2s1
EC50 [15]: > 60 µM (not active)
EC50 [16]: 2.48 µM (active)
IC50 [17]: 3.79 µM (active)

CCC[n+]1c(C)sc2c3c(ccc21)CCCC3
AC50 [18]: 9.87 µM (active)

Cc1c(N2C(=O)/C(=C\c3ccccc3O)SC2=S)c(=O)n(-c2ccccc2)n1C
IC50 [19]: 46.2 µM (active)
IC50 [20]: 45.2 µM (active)

CCN(CC)CCCC(C)n1c(-c2ccccc2)nc2c(NCCOC)nc(C)nc21 (stereo not given)
AC50 [1]: 20 µM (inconclusive)

COc1ccc(C(=O)Nc2ccc(-c3nnn(CC(=O)NCc4ccco4)n3)cc2)cc1
IC50 [14]: 43.1 µM (active)

OC(CNCC1CCCO1)Cn1c2ccc(Cl)cc2c2cc(Cl)ccc21 (stereo not given)
AC50 [21]: 3.42 µM (active)
IC50 [10]: 8.48 µM (active)
CC50 [11]: 7.5 µM (active)
CC50 [12]: 9.03 µM (active)
CC50 [13]: 11.2 µM (active)
IC50 [22]: > 20 µM (inactive)

O=C(COC(=O)c1ccccc1Nc1ccccc1)NCc1ccccc1Cl
EC50 [7]: > 350 µM (not active)
EC50 [8]: > 350 µM (not active)

COC(=O)C1=C(C)N(Cc2ccccc2)[C@]23O[C@](C(=O)OC)(C(=O)N2C1c1ccccc1)C1C(=O)N(c2ccccc2)C(=O)C13 (stereo not given in full)
AC50 [1]: 5.01 µM (inconclusive) and 3.98 µM (inconclusive)

O=C(Nc1c(-c2ccc3c(c2)OCO3)[nH][nH]c1=O)c1ccc2c(c1)OCO2
IC50 [23]: > 129 µM (inactive)

Cc1cc(C(=O)N/N=C/c2ccc([N+](=O)[O-])s2)[nH]n1
EC50 [2]: 1.86 µM (active)
EC50 [15]: > 60 µM (not active)
IC50 [10]: 8.88 µM (active)
IC50 [24]: 6.84 µM (not active)
EC50 [16]: 0.612 µM (active)
EC50 [5]: 2.69 µM (active)
CC50 [12]: > 40 µM (active)
CC50 [13]: 16.9 µM (active)

C[C@@H](CO)NC(=O)[C@@H]1C=C2c3cccc4[nH]cc(c34)C[C@H]2N(C)C1 [ERGONOVINE]
AC50 [1]: 20 µM (inconclusive)

OCC(O)Cc1ccc2c(c1)OCO2 (stereo not given) [SAFROLGLYCOL]
AC50 [1]: 39.8 µM (inconclusive)
